From paper PMC10331946, “Characterization of Natural Compounds as Inhibitors of NS1 Endonuclease from Canine Parvovirus Type 2” (Journal of Microbiology and Biotechnology, 2023)

Experiments:
canine = test system: canine; parameters: method as in Campigotto et al., 34; details: diet containing curcumin; ref Campigotto et al., 34; cited from earlier work
CPV-2 NS1 endonuclease = biological target: T1, CPV-2 NS1 endonuclease (Canine parvovirus type 2, UniProt P12929); assay: FRET nicking assay, inhibition of recombinant CPV-2 NS1 endonuclease; format: biochemical, Canine parvovirus type 2 (CPV-2); details: for IC50: single compounds, 1.25 μg endonuclease, pH 7.0, 300 mM NaCl, 37°C, curcumin by 4PL, others by linear regression
T1 construct: hexahistidine (N); hexahistidine (C); made in house; host or cells: E. coli BL21 (De3) pLysS
T1 sequence (P12929 1-277): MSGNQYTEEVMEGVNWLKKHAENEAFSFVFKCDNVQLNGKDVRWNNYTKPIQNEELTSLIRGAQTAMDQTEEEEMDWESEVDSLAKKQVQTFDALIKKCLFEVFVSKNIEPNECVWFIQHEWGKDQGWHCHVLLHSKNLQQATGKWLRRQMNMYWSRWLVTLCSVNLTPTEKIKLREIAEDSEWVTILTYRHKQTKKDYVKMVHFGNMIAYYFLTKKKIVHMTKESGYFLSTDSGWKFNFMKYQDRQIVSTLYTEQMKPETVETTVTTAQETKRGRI
Excerpt: The fluorescence resonance energy transfer (FRET) substrate, which was composed of an oligonucleotide 5¢-TAA CCT TAC CAT AAG TA↓T CAA TCT GTC TTT-3¢ labeled with carboxyfluorescein (FAM) at the 5¢-terminus and black hole quencher 1 (BHQ1) at the 3¢-terminus as the energy transfer pair, was designed and synthesized by Bioneer Corp. (Korea) (Fig. S1).
cDNA of the CPV-2 NS1 endonuclease gene was synthesized after codon optimization (Genscript, USA) based on the N-terminal amino acid sequence (amino acids 1–277 of the DNA-binding region) of CPV-2 NS1 endonuclease (GenBank Accession No. AAV36764.1) (Fig. S2). The CPV-2 NS1 endonuclease gene was imbedded into the pET-28a (+) vector (Novagen, Germany) with hexahistidine tags at the N- and C-termini. The plasmids were transformed into E. coli BL21 (De3) pLysS (Invitrogen, USA) for expression. The transformed cells were cultured in 1 L of LB containing 30 μg/ml kanamycin at 37°C until the OD600 reached 0.6. Next, protein expression was induced with 1 mM isopropyl β-D-1-thiogalactopyranoside (IPTG) at 24°C for 20 h. Cells were harvested by centrifugation at 12,000 ×g for 25 min and 4°C. The pellet was resuspended in 50 ml 50 mM Tris-HCl buffer (pH 7.0) containing 300 mM NaCl and disrupted by sonication. After centrifugation at 12,000 ×g for 30 min and 4°C, the supernatant was applied to a Ni-NTA agarose column (Qiagen, Germany) and washed with 50 mM Tris-HCl buffer (pH 8.0) containing 300 mM NaCl and 20 mM imidazole. CPV-2 NS1 endonuclease was eluted with 50 mM Tris-HCl buffer (pH 8.0) containing 300 mM NaCl, and 250 mM imidazole, and dialyzed against 50 mM Tris-HCl (pH 7.0) containing 300 mM NaCl at 4°C overnight. The purified protein was stored at −20°C until required.
CPV-2 NS1 endonuclease activity was measured using an FRET substrate as described above. The reaction mixture was composed of 1.25 μg endonuclease and 0.6 μM FRET in 50 mM Tris-HCl buffer (pH 7.0). The reaction was run at 37°C with continuous monitoring of fluorescence for 10 min. Relative fluorescence units (RFUs) were measured using a SpectraMax M3 fluorescence plate reader (Molecular Devices, USA) with an excitation wavelength of 495 nm and an emission wavelength of 517 nm.
Thirty-one compounds, extracted sesame cake, turmeric, and yerba mate were tested for inhibitory effects against CPV-2 NS1 endonuclease. For screening, thirty-one compounds, turmeric, and yerba mate were dissolved in dimethyl sulfoxide (DMSO) to 5 mM or 10 mg/ml as stock solutions. Sesame cake extract (10 mg/ml) was solubilized in water. The reaction was initiated by adding 0.6 μM FRET substrate to a mixture of 50 μM compound and 1.25 μg endonuclease in 50 mM Tris-HCl buffer (pH 7.0) containing 300 mM NaCl. The reaction was run at 37°C for 3 min using a SpectraMax M3 fluorescence plate reader with an excitation wavelength of 495 nm and emission wavelength of 517 nm. Inhibitory activity was calculated using the following equation:
Inhibition activity (%) 100-[(S-S0)÷(C-C0)]×100
where C is RFU of the control (enzyme, buffer, and substrate) after a 3 min reaction, C0 is the RFU of the control at 0 min, S is the RFU of the sample (enzyme, buffer, inhibitor, and substrate) after 3 min, and S0 is the RFU of the sample at 0 min.
We determined the 50% inhibitory concentrations (IC50) of the six natural compounds, extracted turmeric, yerba mate, and sesame cake relative to the inhibitor-free control. The IC50 values of curcumin, and extracted sesame cake were calculated using a four-parameter logistic curve (4PL) using Prism v. 8 software (GraphPad Software Inc., USA). […] 8 software.

bird = details: free curcumin 30 mg/kg of feed, cited from earlier work
all animals = test system: all animals; parameters: method as in PMID 42087962; details: cited from earlier work
beagle dogs = test system: beagle dogs; parameters: method as in Yang et al. (2022), 42; details: dietary supplementation at 2.5 g/kg, ref Yang et al. (2022), 42; cited from earlier work
[1] = ref Marchiori et al. (2019), 49

SMILES | effect on canine health (canine) | Inhibition (%) at 50 μM (CPV-2 NS1 endonuclease; 50 μM inhibitor, 0.6 μM FRET substrate, 1.25 μg enzyme, 50 mM Tris/HCl pH 7.0, 37°C, 3 min) [%] | inhibition at 50 µM (CPV-2 NS1 endonuclease; pH 7, read-out: Inhibition (%) at 50 μM, 50 μM inhibitor, 0.6 μM FRET substrate, 1.25 μg enzyme, 50 mM Tris/HCl pH 7.0, 37°C, 3 min) [%] | fold higher CPV-2 NS1 endonuclease inhibitory activity than demethoxycurcumin (CPV-2 NS1 endonuclease; ratio of IC50 values) [fold] | IC50 (CPV-2 NS1 endonuclease; 0.6 μM FRET substrate, 3 min) [nM] | antioxidant capacity versus control group (bird) | egg production versus controls (bird; [1]) | egg weight and mass versus controls (bird; [1]) | safe proposed maximum level in complete feed (all animals) [mg/kg] | effect on environmental stress-induced symptoms (beagle dogs)
COc1cc(/C=C/C(=O)CC(=O)/C=C/c2ccc(O)c(OC)c2)ccc1O [Curcumin] | enhanced canine health by stimulating the antioxidant system and erythropoiesis | 100 | > 95 | 2.17 | 290 ± 70 | higher antioxidant capacity than the control group | higher | higher |  | 
O=C(OCC1OC(OC(=O)c2cc(O)c(O)c(OC(=O)c3cc(O)c(O)c(O)c3)c2)C(OC(=O)c2cc(O)c(O)c(OC(=O)c3cc(O)c(O)c(O)c3)c2)C(OC(=O)c2cc(O)c(O)c(OC(=O)c3cc(O)c(O)c(O)c3)c2)C1OC(=O)c1cc(O)c(O)c(OC(=O)c2cc(O)c(O)c(O)c2)c1)c1cc(O)c(O)c(OC(=O)c2cc(O)c(O)c(O)c2)c1 (centres unmarked) [Tannic acid] |  |  |  |  | 1180 ± 100 |  |  |  | ≤ 15 | relieved environmental stress-induced diarrheal symptoms, inflammatory response, and oxidative stress
